According to patent US12558405B2, “Pharmaceutical composition using endogenous cells for preventing or treating musculoskeletal disorders” (SEOUL NATIONAL UNIVERSITY R&DB FOUNDATION, priority 2019, dated 2026):

Tests used:
bone marrow stem cells [1] = experiment: Chemotaxis of stem cells, Boyden chamber assay; format: cell-based; details: 24 hours; control group (antibiotic) = 100.00; composition 10% of medium volume, positive controls 100 ng/mL
Method: 1×10^4 bone marrow stem cells were seeded onto an upper insert of a transwell and cultured for 24 hours in LG DMEM containing an antibiotic (HyClone, Thermo Fisher Scientific Inc., Waltham, MA, USA). […] LG DMEM not containing FBS was used as a negative control group, and G-CSF 100 ng/mL, SDF-1α 100 ng/mL and IL-1β 100 ng/mL were compared as positive control groups of chemotaxis. In order to count the cells that migrated from the insert to the bottom, the cells remaining on the insert was removed 24 hours later and only the cells at the bottom were left. After fixing with 4% paraformaldehyde and staining with crystal violet, the cells were observed under a microscope. For quantification of the cells that migrated to the bottom, OD540 was measured after dissolving the crystal violet with acetic acid. All experiments were repeated 3 times.

bone marrow stem cells [2] = experiment: Chemotaxis of stem cells, agarose chemotaxis assay; format: cell-based; details: 72 hours; control group (antibiotic) = 100.00; composition 50% of medium volume, positive controls 100 ng/mL
Method: First, after preparing 0.8% agarose gel on a 6-well plate, three holes were perforated in each well with intervals of 5 mm using a 5-mm skin biopsy punch. 1×10^4 bone marrow stem cells were dispensed into LG DMEM containing 10% FBS and an antibiotic at the center. After waiting for 5 hours until the cells were attached, the medium was replaced with LG DMEM containing the antibiotic only. […] In addition, G-CSF 100 ng/mL, SDF-1α 100 ng/mL and IL-1β 100 ng/mL were treated for comparison as positive control groups of chemotaxis. 72 hours later, the cells were fixed with 4% paraformaldehyde, stained with DAPI and observed with a fluorescence microscope. The cells that migrated to the left and right sides were imaged with the fluorescence microscope. The number of cells that migrated 100 μm or longer from the end of each hole was counted. All experiments were repeated 3 times.

Which “Number of migrated cells” value (bone marrow stem cells [1]) does the source give for “IL-1β: positive control of chemotaxis, 100 ng/mL” here?
Its value is 358.85 ± 271.58.

And the “Number of migrated cells” value (bone marrow stem cells [2])?
The value was 314.13 ± 220.72.

How did the “Number of migrated cells” value (bone marrow stem cells [1]) turn out when “SDF-1α: positive control of chemotaxis, 100 ng/mL” was run?
The value was 365.28 ± 280.55.

And the “Number of migrated cells” value (bone marrow stem cells [2])?
The value was 466.68 ± 348.04.

B1: G-CSF: positive control of chemotaxis, 100 ng/mL (protein, UniProt P09919 31-207, looked up)
Granulocyte …: TPLGPASSLPQSFLLKCLEQVRKIQGDGAALQEKLVSECATYKLCHPEELVLLGHSLGIPWAPLSSCPSQALQLAGCLSQLHSGLFLYQGLLQALEGISPELGPTLDTLQLDVADFATTIWQQMEELGMAPALQPTQGAMPAFASAFQRRAGGVLVASHLQSFLEVSYRVLRHLAQP
For B1, which “Number of migrated cells” value (bone marrow stem cells [1]) is on record?
Its value is 415.01 ± 338.54.

And the “Number of migrated cells” value (bone marrow stem cells [2])?
Its value is 393.76 ± 280.52.
